Test results: EP0514935B1, “Novel benzopyran derivatives and processes for the preparation thereof” (KOREA RESEARCH INSTITUTE OF CHEMICAL TECHNOLOGY, priority 1991, dated 1992)
Where two headings read alike, the source gives them in different places.

Tests used:
[1] = system: spontaneously hypertensive rats; assay: Blood pressure-lowering activity, tail-cuff method; type: in vivo; settings: maximum lowering effect on systolic blood pressure
Experimental: The activity of the formula(I) compounds of the present invention was tested by employing the tail-cuff method described in references [see, e.g., I. M. Claxton, M. G. Palfreyman, R. H. Poyster and R. L. Whiting, European Journal of Pharmacology 37, 179(1976)] . After administration of the test compound of formula(I) to sets of spontaneously hypertensive rats, maximum blood pressure-lowering activity was determined by measuring the lowering effect on systolic blood pressure.

[2] = system: Guinea pig trachea muscle; assay: Relaxation activity on respiratory smooth muscle contracted with histamine; type: cell-based; settings: Cavia porcellus, concentration relaxing 50% of the contraction, read-out: Trachea Relaxation Activity, EC₅₀
Experimental: Further, the relaxation activity on respiratory smooth muscle was determined as follows: Guinea pig trachea muscle was made to be contracted with histamine; and then the test compound of the present invention was administered thereto; and the concentration of the test compound which was required in relaxing 50% level of the contraction was determined and designated as EC₅₀.

[3] = Toxicity test, oral administration, deaths over 48 hours; settings: rat, in vivo, rats, orally administered; for mortality at 48 h: deaths over 48 hours, read-out: Lethal Rate(%); for LD50 at 48 h: amount of test compound which causes a 50% lethal rate, read-out: LD₅₀
Experimental: Six pairs(each pair consisting of a male and a female) of the rats were used in the test. The number of the rats which died over a period of 48 hours was reported.

Row | Structure (SMILES) | Blood Pressure-Lowering Activity ([1]; Dose 0.3 mg/kg) [%] | Blood Pressure-Lowering Activity ([1]; Dose 1.0 mg/kg) [%] | EC50 [2] [µM] | mortality at 48 h ([3]; Dose 10 mg/kg) [%] | mortality at 48 h ([3]; Dose 20 mg/kg) [%] | mortality at 48 h ([3]; Dose 50 mg/kg) [%] | LD50 at 48 h [3] [mg/kg] | Blood Pressure-Lowering Activity ([1]; Dose 0.1 mg/kg) [%]
1 | COC(OC)C1(C)C=C(N2CCCC2=O)c2cc(C#N)ccc2O1 (racemic) [Example 1, 2-dimethoxymethyl-2-methyl-4-(2' -oxo-1' -pyrrolidinyl)-6-cyano-2H-1-benzopyran] | 24 | 43 | 150 | 0 | 8 | 25 | > 50 | –
2 | COC(OC)C1(C)C=C(N2CCCC2=O)c2cc(S(=O)(=O)c3ccccc3)ccc2O1 (racemic) [Example 3, 2-dimethoxymethyl-2-methyl-4-(2' -oxo-1' -pyrrolidinyl)-6-phenylsulfonyl-2H-1-benzopyran] | – | – | 10.9 | – | – | – | – | 6.9
3 | CC1(C2OCCO2)C=C(N2CCCC2=O)c2cc(C#N)ccc2O1 (racemic) [Example 7, 2-(2'' -(1'' ,3'' -dioxolane))-2-methyl-4-(2' -oxo-1' -pyrrolidinyl)-6-cyano-2H-1-benzopyran] | – | 41 | 50 | – | – | – | – | –
4 | CC1(C2OCCO2)C=C(N2CCCC2=O)c2cc(OC(F)(F)F)ccc2O1 (racemic) [Example 9, 2-(2'' -(1'' ,3'' -dioxolane))-2-methyl-4-(2' -oxo-1' -pyrrolidinyl)-6-trifluoromethoxy-2H-1-benzopyran] | – | – | 17.1 | – | – | – | – | 20.6
5 | CC1(C2OCCCO2)C=C(N2CCCC2=O)c2cc([N+](=O)[O-])ccc2O1 (racemic) [Example 11, 2-(2'' -(1'' ,3'' -dioxane))-2-methyl-4-(2' -oxo-1' -pyrrolidinyl)-6-nitro-2H-1-benzopyran] | – | – | 50 | 0 | 35 | 35 | > 50 | 48
6 | COC(OC)C1(C)C=C(N2CCCC2=O)c2cc(C#N)ccc2O1 (single isomer, unassigned) [16(-), 2-dimethoxymethyl-2-methyl-4-(2' -oxo-1' -pyrrolidinyl)-6-cyano-2H-1-benzopyran] | 28 | 55 | 140 | – | – | – | – | –
7 | CC1(C)Oc2ccc(C#N)cc2C(N2CCCC2=O)C1O (stereo not drawn) [Cromakalim(-), Cromakalim, reference compound] | 39 | – | 2.7 | – | – | – | – | –
